Common to all, as to format: cell-based
For test [1], the target named is T1, human EGFR exon 20 H773_V774insNPH (Homo sapiens, UniProt P00533, INS773NPH).
T1 construct: host or cells: Ba/F3
Description: EGFR Exon20 NPH insertion cellular phosphorylation inhibition (MSD pEGFR Y1068/total EGFR).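 Note: IL3-independent Ba/F3 cells with constitutively phosphorylated EGFR, compound exposure at 37 °C under 5% CO2, electrochemiluminescent MSD measurement of the p-EGFR to total EGFR ratio.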 The conditions noted are these: Ba/F3 EGFR NPH ins cells, 4 h compound, p-EGFR(Y1068)/total EGFR.

Test [2] concerns the target T2, human EGFR exon 20 V769_D770insASV (Homo sapiens, UniProt P00533, INS769ASV).
T2 construct: expressed in transfected cells; host or cells: Ba/F3 (DSMZ ACC-300), lentiviral transduction, puromycin selection, IL3 depletion
Description: EGFR Exon20 ASV insertion cellular phosphorylation inhibition (MSD pEGFR Y1068/total EGFR).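 Note: electrochemiluminescent readout on an MSD SECTOR Imager, IL3-independent transduced cells in medium with 1% FBS, compound concentration series at 37 °C and 5% CO2.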 The conditions noted are these: Ba/F3 EGFR ASV ins cells, 4 h compound, p-EGFR(Y1068)/total EGFR.

Test [3] deals with T3, EGFR L858R&T790M (Homo sapiens, UniProt P00533, L858R/T790M).
T3 construct: host or cells: NCI-H1975
T3 sequence (P00533 25-1210 T790M/L858R): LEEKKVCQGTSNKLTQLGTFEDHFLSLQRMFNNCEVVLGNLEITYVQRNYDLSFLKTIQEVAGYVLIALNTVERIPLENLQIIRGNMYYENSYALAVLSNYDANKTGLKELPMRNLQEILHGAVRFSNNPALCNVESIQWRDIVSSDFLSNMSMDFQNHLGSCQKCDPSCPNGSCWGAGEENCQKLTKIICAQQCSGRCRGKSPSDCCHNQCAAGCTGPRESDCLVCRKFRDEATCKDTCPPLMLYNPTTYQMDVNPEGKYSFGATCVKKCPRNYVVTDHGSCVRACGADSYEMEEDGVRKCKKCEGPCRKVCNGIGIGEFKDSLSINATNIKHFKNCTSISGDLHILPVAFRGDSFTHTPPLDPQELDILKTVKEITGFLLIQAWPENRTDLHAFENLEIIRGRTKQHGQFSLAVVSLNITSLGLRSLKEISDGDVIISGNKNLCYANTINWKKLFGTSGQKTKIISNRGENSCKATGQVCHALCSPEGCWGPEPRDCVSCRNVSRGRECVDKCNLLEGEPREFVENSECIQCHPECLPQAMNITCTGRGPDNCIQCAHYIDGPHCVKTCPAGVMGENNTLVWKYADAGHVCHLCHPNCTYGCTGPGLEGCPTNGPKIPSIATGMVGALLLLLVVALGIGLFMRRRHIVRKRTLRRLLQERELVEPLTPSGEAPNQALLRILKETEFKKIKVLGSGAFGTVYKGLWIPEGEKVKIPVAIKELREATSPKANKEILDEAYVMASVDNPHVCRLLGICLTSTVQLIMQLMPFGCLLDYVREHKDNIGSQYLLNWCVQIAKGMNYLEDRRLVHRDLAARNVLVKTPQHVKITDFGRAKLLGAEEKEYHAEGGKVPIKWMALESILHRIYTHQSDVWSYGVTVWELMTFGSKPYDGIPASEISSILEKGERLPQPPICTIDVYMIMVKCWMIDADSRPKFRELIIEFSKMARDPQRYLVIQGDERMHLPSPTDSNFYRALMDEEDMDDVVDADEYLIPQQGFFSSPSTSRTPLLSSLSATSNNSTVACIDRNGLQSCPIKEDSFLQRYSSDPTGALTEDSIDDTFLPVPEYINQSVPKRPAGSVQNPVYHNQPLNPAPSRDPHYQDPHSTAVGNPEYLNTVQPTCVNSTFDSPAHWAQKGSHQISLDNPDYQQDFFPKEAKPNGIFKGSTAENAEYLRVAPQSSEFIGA
Kind of test: EGFR L858R and T790M cellular phosphorylation inhibition in NCI-H1975 (MSD).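 Note: phosphorylated and total EGFR detected by electrochemiluminescence, cells exposed to compound in medium containing 1% FBS at 37 °C.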 The following applies: NCI-H1975 cells, 4 h compound, p-EGFR(Y1068)/total EGFR; read-out: EGFR L858R and T790M mutation IC50.

Test [4] has as its target T4, human Her2 exon 20 insertion mutation YVMA (Homo sapiens, UniProt P04626, INS775YVMA).
T4 construct: expressed in transfected cells; host or cells: NIH-3T3, lentiviral transduction, puromycin selection
Kind of test: Her2 Exon 20 YVMA insertion cellular phosphorylation inhibition (MSD p-Her2 Y1248/total Her2).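 Note: lentivirally transduced NIH-3T3 cells in 1% FBS medium, electrochemiluminescent MSD read-out, graded compound concentrations at 37 °C.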 The following applies: Her2 YVMAins cells, 4 h compound.

For test [5], the target named is T5, WT EGFR (Homo sapiens, UniProt P00533).
T5 construct: host or cells: A-431
Kind of test: WT EGFR cellular phosphorylation inhibition in A-431 (hEGF stimulated, MSD).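 Note: electrochemiluminescence read-out of EGFR Tyr1068 phosphorylation expressed as ratio to total EGFR, cells kept in medium with 1% FBS, compounds tested as a concentration series.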 The conditions noted are these: A431 cells, 4 h compound, then 100 ng/ml hEGF 10 min.

For test [6], the system named is Ba/F3 EGFR NPH ins cells. Description: Cell proliferation, Ba/F3 EGFR NPH ins (CellTiter-Glo, 72 h).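 Note: IL3-independent cells carrying constitutively phosphorylated EGFR, compound dilution series, viable cells quantified by ATP luminescence, growth relative to DMSO wells after subtracting pre-dosing (day 0) baseline.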 The conditions noted are these: Ba/F3 EGFR, 72 h, Ba/F3 EGFR NPH ins, 72 h proliferation; read-out: EGFR Exon20 NPH insertion GI50.
The subject of test [7] is Ba/F3 EGFR ASV ins cells. Kind of test: Cell proliferation, Ba/F3 EGFR ASV ins (CellTiter-Glo, 72 h).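 Note: IL3-independent Ba/F3 cells transduced with EGFR V769_D770insASV, cellular ATP luminescence after compound exposure, growth relative to DMSO control with the day-0 baseline reading subtracted.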 The conditions noted are these: Ba/F3 EGFR, 72 h, Ba/F3 EGFR ASV ins, 72 h proliferation; read-out: EGFR Exon20 ASV insertion GI50. On the technique in general: In ATP-based viability assays light output follows the ATP content of the culture.
The subject of test [8] is NCI-H1975 EGFR L858R/T790M cells. Kind of test: Cell proliferation, NCI-H1975 EGFR L858R/T790M (CellTiter-Glo, 72 h).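 Note: viable cells quantified by luciferase-based ATP luminescence, proliferation expressed relative to DMSO-treated wells (100%) after subtracting a parallel plate read at the time of dosing.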 The following applies: Homo sapiens, NCI-H1975, 72 h, NCI-H1975, 72 h proliferation; read-out: EGFR L858R and T790M mutation GI50.
Description: (§1) WT or mutant cells were seeded in 384 well plates at appropriate concentrations with corresponding growth media supplemented with 10% FBS, for each experiment, identical plates were prepared in duplicates, and the plates were incubated overnight. On the next day, one of each duplicated plates was dosed with tested compounds at a series of concentrations, and another one of the duplicated plate was analysied for G0 value. The dosed plates were incubate for another 72 h at 37° C. with 5% CO2 and the number of viable cells in each well of the G0 plates or the dosed plates were measured by CellTiter-Glo® Luminescent Cell Viability Assay (Promega). This assay is a luminescent method for determining the number viable cells through measurement of cellular ATP concentration by detection of luciferase activity. Detection reagents (15 µl) was dispensed into per well, and the plates were incubate for 30 min at room temperature. Then, the luminescence in each well was measured using the Envision plate reader (PerkinElmer). The percentage of proliferation was calculated based on the formula: %Proliferation= 100 × (G3 value of sample well-Go value)/(G3 value of DMSO control-Go value).
Test [9] has as its system Her2 exon 20 insertion YVMA transduced NIH-3T3 cell line. Kind of test: Cell proliferation, Her2 YVMAins NIH-3T3 (CellTiter-Glo, 72 h).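 Note: viable cells quantified by ATP luminescence, growth over a day-zero baseline plate expressed as percent of DMSO control growth, compound dilution series in 10% FBS medium.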 The following applies: Mus musculus, NIH3T3, 72 h, Her2 YVMAins cells, 72 h proliferation; read-out: Her2 Exon 20 YVMA insertion GI50.
Description: as §1
Test [10] concerns WT EGFR cell line A-431. Kind of test: Cell proliferation, WT EGFR A431 (CellTiter-Glo, 72 h).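 Note: proliferation from a luminescent ATP viability signal, expressed as 100 × (treated minus time-zero plate) over (DMSO control minus time-zero plate), cells grown with 10% FBS.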 The conditions noted are these: Homo sapiens, A-431, 72 h, A431, 72 h proliferation; read-out: EGFR WT A431 GI50.
Description: as §1
Test [11] deals with OCI-LY-10 cells. Description: BTK (wt) cell proliferation, OCI-LY-10 (CellTiter-Glo, 72 h).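 Note: viable cells quantified via cellular ATP luminescence, proliferation given as percent of DMSO control after subtracting a duplicate plate read at time of dosing.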 The conditions noted are these: Homo sapiens, OCI-Ly10, 72 h, OCI-LY-10 cells, 72 h, CellTiter-Glo; read-out: BTK WT OCI-LY-10 GI50.
The test system of test [12] is TMD-8 cells. Kind of test: BTK (wt) cell proliferation, TMD-8 (CellTiter-Glo, 72 h).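 Note: viable cells quantified by ATP-based luminescence, proliferation expressed as percent of DMSO control after subtracting a time-zero baseline plate read at dosing.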 The conditions noted are these: Homo sapiens, TMD8, 72 h, TMD-8 cells, 72 h, CellTiter-Glo; read-out: BTK WT TMD-8 GI50.
Test [13] concerns Ri-1 cells. Kind of test: BTK (wt) cell proliferation, Ri-1 (CellTiter-Glo, 72 h).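 Note: viable cells quantified as cellular ATP luminescence, proliferation normalized to a time-zero plate and the DMSO control, compounds tested across a dilution series.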 The conditions noted are these: Ri-1, 72 h, Ri-1 cells, 72 h, CellTiter-Glo; read-out: BTK WT Ri-1 GI50.
Test [14] relates to DB cells. Description: BTK (wt) cell proliferation, DB (CellTiter-Glo, 72 h).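 Note: DB cells in 384-well plates given a dilution series of compound, viable cells read by ATP luminescence, growth expressed versus DMSO control after subtracting a time-zero plate reading.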 The conditions noted are these: Homo sapiens, DB, DB cells, CellTiter-Glo, read-out: Non-BCR activated DB GI50.

For orientation: IC50 means the concentration at which inhibition is half-maximal. One may read the GI50 as the concentration that inhibits growth by half.

T1 sequence (P00533 with tags, fused parts or gaps INS773NPH): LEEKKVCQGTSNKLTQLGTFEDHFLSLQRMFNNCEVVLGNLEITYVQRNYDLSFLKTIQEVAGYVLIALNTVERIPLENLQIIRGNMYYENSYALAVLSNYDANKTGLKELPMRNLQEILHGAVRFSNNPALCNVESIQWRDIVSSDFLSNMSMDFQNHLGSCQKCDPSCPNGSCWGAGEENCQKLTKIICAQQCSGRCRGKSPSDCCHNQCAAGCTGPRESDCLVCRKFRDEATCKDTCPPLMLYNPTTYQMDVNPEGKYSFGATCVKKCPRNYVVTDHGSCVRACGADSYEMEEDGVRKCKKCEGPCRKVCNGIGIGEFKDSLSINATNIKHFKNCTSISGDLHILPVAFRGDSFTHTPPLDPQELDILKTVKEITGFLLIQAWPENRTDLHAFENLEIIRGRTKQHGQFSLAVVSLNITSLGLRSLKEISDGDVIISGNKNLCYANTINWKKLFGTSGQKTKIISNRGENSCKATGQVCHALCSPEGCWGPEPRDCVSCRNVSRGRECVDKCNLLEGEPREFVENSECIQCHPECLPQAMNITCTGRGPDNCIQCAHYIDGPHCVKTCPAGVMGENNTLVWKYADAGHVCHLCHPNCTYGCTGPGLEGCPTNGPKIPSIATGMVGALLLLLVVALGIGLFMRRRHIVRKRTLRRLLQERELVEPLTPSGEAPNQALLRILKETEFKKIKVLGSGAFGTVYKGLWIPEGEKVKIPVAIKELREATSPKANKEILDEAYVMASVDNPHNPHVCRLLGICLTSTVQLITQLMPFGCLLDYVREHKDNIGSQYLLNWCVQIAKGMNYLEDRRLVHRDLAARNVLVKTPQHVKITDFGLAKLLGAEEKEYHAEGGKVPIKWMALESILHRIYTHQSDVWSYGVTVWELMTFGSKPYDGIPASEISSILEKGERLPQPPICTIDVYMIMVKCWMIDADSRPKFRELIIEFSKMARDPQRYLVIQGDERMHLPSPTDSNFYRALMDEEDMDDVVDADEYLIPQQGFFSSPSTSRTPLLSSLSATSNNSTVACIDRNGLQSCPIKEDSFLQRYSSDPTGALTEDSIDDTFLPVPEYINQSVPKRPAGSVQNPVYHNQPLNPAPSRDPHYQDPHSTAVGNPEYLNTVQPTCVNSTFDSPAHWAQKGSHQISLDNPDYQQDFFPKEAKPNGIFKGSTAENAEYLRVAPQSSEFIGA
T4 sequence (P04626 with tags, fused parts or gaps INS775YVMA): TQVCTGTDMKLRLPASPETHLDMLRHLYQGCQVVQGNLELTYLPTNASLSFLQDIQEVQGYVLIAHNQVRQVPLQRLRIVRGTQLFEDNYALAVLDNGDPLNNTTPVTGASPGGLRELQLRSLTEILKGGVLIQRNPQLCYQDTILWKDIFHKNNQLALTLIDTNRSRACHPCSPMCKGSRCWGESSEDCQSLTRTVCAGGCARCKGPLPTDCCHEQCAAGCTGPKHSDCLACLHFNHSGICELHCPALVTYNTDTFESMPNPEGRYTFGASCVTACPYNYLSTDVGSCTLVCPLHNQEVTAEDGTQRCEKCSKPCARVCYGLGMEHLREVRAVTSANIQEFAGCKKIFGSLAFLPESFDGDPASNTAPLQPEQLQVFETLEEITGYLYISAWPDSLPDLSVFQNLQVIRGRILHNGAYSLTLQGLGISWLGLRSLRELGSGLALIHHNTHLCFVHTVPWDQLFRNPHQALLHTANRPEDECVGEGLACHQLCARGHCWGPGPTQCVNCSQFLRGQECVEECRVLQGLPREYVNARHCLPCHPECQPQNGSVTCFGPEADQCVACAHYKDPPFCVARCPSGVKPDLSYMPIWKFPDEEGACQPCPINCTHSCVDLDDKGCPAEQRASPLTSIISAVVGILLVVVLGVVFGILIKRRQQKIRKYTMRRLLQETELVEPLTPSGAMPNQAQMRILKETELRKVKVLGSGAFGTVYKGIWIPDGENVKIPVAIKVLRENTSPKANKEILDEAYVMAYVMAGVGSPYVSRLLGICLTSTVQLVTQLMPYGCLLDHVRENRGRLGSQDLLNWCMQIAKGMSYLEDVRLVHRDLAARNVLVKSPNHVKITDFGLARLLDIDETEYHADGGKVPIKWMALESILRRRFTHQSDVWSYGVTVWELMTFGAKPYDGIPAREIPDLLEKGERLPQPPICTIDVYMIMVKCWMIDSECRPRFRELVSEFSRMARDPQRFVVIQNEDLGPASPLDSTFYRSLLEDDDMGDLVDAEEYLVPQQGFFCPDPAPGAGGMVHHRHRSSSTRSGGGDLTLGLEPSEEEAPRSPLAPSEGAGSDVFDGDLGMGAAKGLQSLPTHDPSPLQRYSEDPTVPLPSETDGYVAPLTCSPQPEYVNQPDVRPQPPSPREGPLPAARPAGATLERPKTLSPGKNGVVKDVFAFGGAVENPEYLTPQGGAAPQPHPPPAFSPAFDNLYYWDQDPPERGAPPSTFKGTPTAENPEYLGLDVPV
T2 sequence (P00533 with tags, fused parts or gaps INS769ASV): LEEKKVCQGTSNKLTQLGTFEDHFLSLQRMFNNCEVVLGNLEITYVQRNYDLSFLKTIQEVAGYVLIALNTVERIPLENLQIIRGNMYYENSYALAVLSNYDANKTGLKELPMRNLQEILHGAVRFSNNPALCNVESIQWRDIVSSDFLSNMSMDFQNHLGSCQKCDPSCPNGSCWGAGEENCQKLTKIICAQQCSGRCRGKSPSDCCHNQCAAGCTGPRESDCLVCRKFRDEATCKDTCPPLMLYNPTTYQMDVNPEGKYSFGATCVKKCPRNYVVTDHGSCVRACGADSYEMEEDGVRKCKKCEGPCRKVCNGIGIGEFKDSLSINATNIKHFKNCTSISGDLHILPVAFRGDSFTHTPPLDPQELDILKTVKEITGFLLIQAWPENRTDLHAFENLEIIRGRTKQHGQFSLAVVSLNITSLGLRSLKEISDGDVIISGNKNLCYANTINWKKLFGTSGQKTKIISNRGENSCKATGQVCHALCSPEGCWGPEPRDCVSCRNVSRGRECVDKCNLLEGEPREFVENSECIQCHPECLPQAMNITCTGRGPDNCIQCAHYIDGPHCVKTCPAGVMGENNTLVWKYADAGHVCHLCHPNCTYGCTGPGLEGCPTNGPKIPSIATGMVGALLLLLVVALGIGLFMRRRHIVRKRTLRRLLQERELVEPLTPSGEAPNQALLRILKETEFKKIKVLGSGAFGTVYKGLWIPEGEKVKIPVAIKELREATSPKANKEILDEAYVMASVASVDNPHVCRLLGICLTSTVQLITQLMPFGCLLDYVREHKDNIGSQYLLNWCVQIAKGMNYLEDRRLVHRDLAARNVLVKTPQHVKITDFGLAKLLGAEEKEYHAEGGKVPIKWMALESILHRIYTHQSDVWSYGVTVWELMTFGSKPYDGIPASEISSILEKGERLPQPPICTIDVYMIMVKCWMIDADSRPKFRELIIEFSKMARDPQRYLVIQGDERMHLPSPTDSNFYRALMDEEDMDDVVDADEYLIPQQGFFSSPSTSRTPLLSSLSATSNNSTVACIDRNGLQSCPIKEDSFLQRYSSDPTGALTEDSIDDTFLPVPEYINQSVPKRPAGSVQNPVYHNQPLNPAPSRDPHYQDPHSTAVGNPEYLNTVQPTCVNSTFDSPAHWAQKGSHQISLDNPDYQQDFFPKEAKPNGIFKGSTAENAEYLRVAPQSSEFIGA

Take `C=CC(=O)Nc1cc(Nc2ncnc(Nc3cc(Cl)c(F)cc3C(C)(O)CC)n2)c(OC)cc1N1CCC[C@@H]1CN(C)C` (stereo partly drawn) [Compound 63, N-(5-(4-(5-chloro-4-fluoro-2-(2-hydroxybutan-2-yl)phenylamino)-1,3,5-triazin-2-ylamino)-2-((R)-2-((dimethylamino)methyl)pyrrolidin-1-yl)-4-methoxyphenyl)acrylamide]: the IC50 in test [1] turned out to be 5.9 nM; in test [2], 6.4 nM; in test [3] it was 0.4 nM; in test [4], 1.4 nM; in test [5], 14.3 nM. For the same molecule, the GI50 in test [6] came out at 17.2 nM; in [7], 13.6 nM; in test [8] it was 1.1 nM; in [9], 23.6 nM; in [10], 4.4 nM; in test [11] it was 63.3 nM. Also, the GI50 in test [12] is 11.6 nM; in [13], 14.9 nM; in [14] it was greater than 3000 nM.

`C=CC(=O)Nc1cc(Nc2ncnc(Nc3cc(Cl)c(F)cc3C(C)(C)O)n2)c(OC)cc1N1CC[C@@H]2CN(C)C[C@@H]21` [Compound 28, N-(5-(4-(5-chloro-4-fluoro-2-(2-hydroxypropan-2-yl)phenylamino)-1,3,5-triazin-2-ylamino)-4-methoxy-2-((3aR,6aR)-5-methylhexahydropyrrolo[3,4-b]pyrrol-1 (2H)-yl)phenyl)acrylamide]: the IC50 is 50.6 nM in test [1]; 21.7 nM in test [2]; 1.4 nM in [3]; 15.2 nM in [4]; 42.1 nM in [5]. For the same molecule, the GI50 in test [6] was 67.7 nM; in test [7], 58.2 nM; in test [8], 8.9 nM; in test [9], 114 nM; in test [10], 21.2 nM; in [11], 119 nM. The values for the GI50 in test [12], in test [13] and in [14] were 34 nM, 230 nM and greater than 3000 nM, respectively.

Consider `C=CC(=O)Nc1cc(Nc2ncnc(Nc3cc(Cl)c(F)cc3C(C)(O)CC)n2)c(OC)cc1N(C)CCN(C)C` (stereo not shown) [Compound 67, N-(5-(4-(5-chloro-4-fluoro-2-(2-hydroxybutan-2-yl)phenylamino)-1,3,5-triazin-2-ylamino)-2-((2-(dimethylamino)ethyl)(methyl)amino)-4-methoxyphenyl)acrylamide], for which the IC50 worked out at 13.6 nM in test [1]; 10.1 nM in test [2]; 0.6 nM in [3]; 4.3 nM in test [4]; 26.6 nM in test [5]. Further, the GI50 is 32.8 nM in [6]; 21.9 nM in [7]; 2.5 nM in test [8]; 46.3 nM in test [9]; 18.7 nM in test [10]; 20.4 nM in [11]. In addition, the values for the GI50 in test [12], in test [13] and in test [14] were 16 nM, 47.9 nM and greater than 3000 nM, respectively.

Regarding `C=CC(=O)Nc1cc(Nc2ncnc(Nc3cc(F)c(F)cc3C(C)(C)O)n2)c(OC)cc1N1CCC[C@@H]1CN(C)C` [Compound 21, (R)-N-(5-(4-(4,5-difluoro-2-(2-hydroxypropan-2-yl)phenylamino)-1,3,5-triazin-2-ylamino)-2-(2-((dimethylamino)methyl)pyrrolidin-1-yl)-4-methoxyphenyl)acrylamide], the IC50 in test [1] was 6.8 nM; in [2], 2.3 nM; in [3], 0.2 nM; in test [4] it was 1.7 nM; in [5] it was 5.1 nM. In addition, the GI50 in test [6] was found to be 11.2 nM; in test [7], 8.2 nM; in test [8] it was 2.5 nM; in test [9], 13.2 nM; in test [10] it was 4.1 nM; in test [11], 9.7 nM. Further, the GI50 was 19.2 nM in [12], 11.2 nM in [13] and greater than 3000 nM in [14].

For `C=CC(=O)Nc1cc(Nc2ncc(C(F)(F)F)c(Nc3cc(Cl)c(F)cc3C(C)(C)O)n2)c(OC)cc1N1CC[C@@H](N(C)C)C1` [Compound 84, (R)-N-(5-(4-(5-chloro-4-fluoro-2-(2-hydroxypropan-2-yl)phenylamino)-5-(trifluoromethyl)pyrimidin-2-ylamino)-2-(3-(dimethylamino)pyrrolidin-1-yl)-4-methoxyphenyl)acrylamide], the IC50 came to 259 nM in [1]; 116 nM in test [2]; 0.4 nM in [3]; 1560 nM in test [4]; 604 nM in test [5]. For the same molecule, the GI50 in test [6] stood at 191 nM; in test [7], 450 nM; in test [8], 19.1 nM; in test [9] it was 341 nM; in [10] it was 232 nM; in test [11] it was 31.2 nM. Further, the GI50 was 39.8 nM in test [12], 137 nM in test [13] and greater than 3000 nM in [14].

On to `C=CC(=O)Nc1cc(Nc2ncnc(Nc3cc(Cl)c(Cl)cc3C(C)(C)O)n2)c(OC)cc1N1CC[C@@H]1CN(C)C` [Compound 54, (R)-N-(5-(4-(4,5-dichloro-2-(2-hydroxypropan-2-yl)phenylamino)-1,3,5-triazin-2-ylamino)-2-(2-((dimethylamino)methyl)azetidin-1-yl)-4-methoxyphenyl)acrylamide], for which the concentration for half-maximal inhibition (IC50) in test [1] stood at 29.9 nM; in test [2], 39.4 nM; in [3] it was 2.4 nM; in [4] it was 14.2 nM; in test [5], 60.5 nM. Besides, the GI50 in test [6] is 68 nM; in test [7] it was 104 nM; in test [8], 6.1 nM; in test [9], 210 nM; in test [10] it was 41.3 nM; in test [11], 4.42 nM. Moreover, the GI50 is 3.62 nM in [12], 9.97 nM in test [13] and greater than 3000 nM in test [14].

On to `C=CC(=O)Nc1cc(Nc2ncnc(Nc3ccc4[nH]ccc4c3C(C)(C)O)n2)c(OC)cc1N(C)CCN(C)C` [Compound 94, N-(2-((2-(dimethylamino)ethyl)(methyl)amino)-5-(4-(4-(2-hydroxypropan-2-yl)-1H-indol-5-ylamino)-1,3,5-triazin-2-ylamino)-4-methoxyphenyl)acrylamide], for which the IC50 in test [1] is 28.5 nM; in [2], 17.7 nM; in test [3], 0.7 nM; in [4], 4.4 nM; in test [5] it was 28.9 nM. Moreover, the GI50 in test [6] stood at 94.9 nM; in [7], 80.9 nM; in [8], 6.4 nM; in test [9], 141 nM; in [10], 16.5 nM; in [11], 21.6 nM. For the same molecule, the values for the 50% growth inhibitory concentration (GI50) in test [12], in test [13] and in test [14] were 94.8 nM, 209 nM and greater than 3000 nM, respectively.

Take `C=CC(=O)Nc1cc(Nc2ncnc(Nc3cc(F)c(F)cc3C(C)(O)CC)n2)c(OC)cc1N1CC[C@@H](N(C)C)C1` (stereo partly drawn) [Compound 48, N-(5-(4-(4,5-difluoro-2-(2-hydroxybutan-2-yl)phenylamino)-1,3,5-triazin-2-ylamino)-2-((R)-3-(dimethylamino)pyrrolidin-1-yl)-4-methoxyphenyl)acrylamide]: the IC50 in [1] came out at 11.1 nM; in test [2] it was 16.2 nM; in [3], 0.4 nM; in test [4], 2.8 nM; in test [5] it was 28.4 nM. In addition, the GI50 is 57.9 nM in test [6]; 29.1 nM in test [7]; 3.2 nM in test [8]; 57.9 nM in test [9]; 14.1 nM in test [10]; 14.1 nM in [11]. Also, the GI50 in [12] was 70.2 nM; in test [13], 371 nM; in [14], greater than 3000 nM.

For the origin of these results see US20230293535A1, “ERBB/BTK INHIBITORS” (Dizal (Jiangsu) Pharmaceutical Co., Ltd., priority 2018, published 2023).
